Organism: Rattus norvegicus
Test: DrugMatrix - Regimen: Daily Repeat
Assay type: toxicity, organism-based, Sprague-Dawley
Set-up: regimen Daily Repeat, gender Male, age 6-8 weeks
Details: in vivo, iv, vehicle 100 % SALINE; for ABSOLUTE BASOPHIL / ABSOLUTE EOSINOPHIL / ABSOLUTE LYMPHOCYTE / ABSOLUTE MONOCYTE / ABSOLUTE SEGMENTED NEUTROPHIL / BASOPHIL / EOSINOPHIL / ERYTHROCYTE COUNT / HEMATOCRIT / HEMOGLOBIN / LEUKOCYTE COUNT / LYMPHOCYTE / MEAN CORPUSCULAR HEMOGLOBIN / MEAN CORPUSCULAR HEMOGLOBIN CONCENTRATION / MEAN CORPUSCULAR VOLUME / MONOCYTE / NEUTROPHIL / NUCLEATED RED BLOOD CELLS / PLATELET COUNT: tissue Blood; for ALANINE AMINOTRANSFERASE / ALBUMIN / ALKALINE PHOSPHATASE / ASPARTATE AMINOTRANSFERASE / BLOOD UREA NITROGEN / CARBON DIOXIDE / CHLORIDE / CHOLESTEROL / CREATINE PHOSPHOKINASE / CREATININE / GLUCOSE / LACTATE DEHYDROGENASE / LIPASE / PHOSPHORUS / POTASSIUM / SODIUM / TOTAL BILIRUBIN / TOTAL PROTEIN / URIC ACID: tissue Plasma
[1] = 10 mg/kg, 120 h, dose level Low, time 5 day
[2] = 350 mg/kg, 72 h, dose level High, time 3 day
[3] = 350 mg/kg, 120 h, dose level High, time 5 day

## O=C(O)P(=O)(O)O [FOSCARNET]
[1]
  ABSOLUTE BASOPHIL: 0 CELLS/uL
  ABSOLUTE EOSINOPHIL: 341 CELLS/uL
  ABSOLUTE LYMPHOCYTE: 13776.67 CELLS/uL
  ABSOLUTE MONOCYTE: 353.33 CELLS/uL
  ABSOLUTE SEGMENTED NEUTROPHIL: 929 CELLS/uL
  BASOPHIL: 0%
  EOSINOPHIL: 2%
  ERYTHROCYTE COUNT: 5.8 x10E6/uL
  HEMATOCRIT: 36.87%
  HEMOGLOBIN: 13.6 G/DL
  LEUKOCYTE COUNT: 15.4 x10E3/uL
  LYMPHOCYTE: 89.67%
  MEAN CORPUSCULAR HEMOGLOBIN: 23.47 pg
  MEAN CORPUSCULAR HEMOGLOBIN CONCENTRATION: 36.93 G/DL
  MEAN CORPUSCULAR VOLUME: 63.6 fL
  MONOCYTE: 2.33%
  NEUTROPHIL: 6%
  NUCLEATED RED BLOOD CELLS: 0 /100WBC
  PLATELET COUNT: 1343 x10E3/uL
  ALANINE AMINOTRANSFERASE: 47.67 u/L
  ALBUMIN: 4.3 G/DL
  ALKALINE PHOSPHATASE: 297.67 u/L
  ASPARTATE AMINOTRANSFERASE: 89 u/L
  BLOOD UREA NITROGEN: 17.67 mg/dL
  CARBON DIOXIDE: 23.67 mmol/L
  CHLORIDE: 105 MEQ/L
  CHOLESTEROL: 61.33 mg/dL
  CREATINE PHOSPHOKINASE: 1049.33 u/L
  CREATININE: 0.22 mg/dL
  GLUCOSE: 193.67 mg/dL
  LACTATE DEHYDROGENASE: 149 u/L
  LIPASE: 8 u/L
  PHOSPHORUS: 11.77 mg/dL
  POTASSIUM: 5.32 MEQ/L
  SODIUM: 145.43 MEQ/L
  TOTAL BILIRUBIN: 0.23 mg/dL
  TOTAL PROTEIN: 5.93 G/DL
  URIC ACID: 1.67 mg/dL
[2]
  ABSOLUTE BASOPHIL: 0 CELLS/uL
  ABSOLUTE EOSINOPHIL: 0 CELLS/uL
  ABSOLUTE LYMPHOCYTE: 12652 CELLS/uL
  ABSOLUTE MONOCYTE: 325.67 CELLS/uL
  ABSOLUTE SEGMENTED NEUTROPHIL: 1422.33 CELLS/uL
  BASOPHIL: 0%
  EOSINOPHIL: 0%
  ERYTHROCYTE COUNT: 5.36 x10E6/uL
  HEMATOCRIT: 33.47%
  HEMOGLOBIN: 12.6 G/DL
  LEUKOCYTE COUNT: 14.4 x10E3/uL
  LYMPHOCYTE: 88%
  MEAN CORPUSCULAR HEMOGLOBIN: 23.57 pg
  MEAN CORPUSCULAR HEMOGLOBIN CONCENTRATION: 37.67 G/DL
  MEAN CORPUSCULAR VOLUME: 62.47 fL
  MONOCYTE: 2.33%
  NEUTROPHIL: 9.67%
  NUCLEATED RED BLOOD CELLS: 0 /100WBC
  PLATELET COUNT: 1373.67 x10E3/uL
  ALANINE AMINOTRANSFERASE: 45 u/L
  ALBUMIN: 4.13 G/DL
  ALKALINE PHOSPHATASE: 377 u/L
  ASPARTATE AMINOTRANSFERASE: 95.33 u/L
  BLOOD UREA NITROGEN: 15.67 mg/dL
  CARBON DIOXIDE: 26 mmol/L
  CHLORIDE: 102.67 MEQ/L
  CHOLESTEROL: 71 mg/dL
  CREATINE PHOSPHOKINASE: 483.67 u/L
  CREATININE: 0.18 mg/dL
  GLUCOSE: 145.33 mg/dL
  LACTATE DEHYDROGENASE: 795 u/L
  LIPASE: 8.33 u/L
  PHOSPHORUS: 9.37 mg/dL
  POTASSIUM: 6.24 MEQ/L
  SODIUM: 142.23 MEQ/L
  TOTAL BILIRUBIN: 0.2 mg/dL
  TOTAL PROTEIN: 5.57 G/DL
  URIC ACID: 1.27 mg/dL
[3]
  ABSOLUTE BASOPHIL: 0 CELLS/uL
  ABSOLUTE EOSINOPHIL: 0 CELLS/uL
  ABSOLUTE LYMPHOCYTE: 12914 CELLS/uL
  ABSOLUTE MONOCYTE: 384.67 CELLS/uL
  ABSOLUTE SEGMENTED NEUTROPHIL: 1034.67 CELLS/uL
  BASOPHIL: 0%
  EOSINOPHIL: 0%
  ERYTHROCYTE COUNT: 5.17 x10E6/uL
  HEMATOCRIT: 33.93%
  HEMOGLOBIN: 13.03 G/DL
  LEUKOCYTE COUNT: 14.33 x10E3/uL
  LYMPHOCYTE: 90.33%
  MEAN CORPUSCULAR HEMOGLOBIN: 25.2 pg
  MEAN CORPUSCULAR HEMOGLOBIN CONCENTRATION: 38.4 G/DL
  MEAN CORPUSCULAR VOLUME: 65.67 fL
  MONOCYTE: 2.67%
  NEUTROPHIL: 7%
  NUCLEATED RED BLOOD CELLS: 0 /100WBC
  PLATELET COUNT: 1324.67 x10E3/uL
  ALANINE AMINOTRANSFERASE: 45 u/L
  ALBUMIN: 4.13 G/DL
  ALKALINE PHOSPHATASE: 385.67 u/L
  ASPARTATE AMINOTRANSFERASE: 74.67 u/L
  BLOOD UREA NITROGEN: 19 mg/dL
  CARBON DIOXIDE: 28.67 mmol/L
  CHLORIDE: 103.67 MEQ/L
  CHOLESTEROL: 69.33 mg/dL
  CREATINE PHOSPHOKINASE: 209.67 u/L
  CREATININE: 0.22 mg/dL
  GLUCOSE: 170 mg/dL
  LACTATE DEHYDROGENASE: 103.33 u/L
  LIPASE: 9 u/L
  PHOSPHORUS: 10.83 mg/dL
  POTASSIUM: 6.68 MEQ/L
  SODIUM: 143.67 MEQ/L
  TOTAL BILIRUBIN: 0.23 mg/dL
  TOTAL PROTEIN: 5.9 G/DL
  URIC ACID: 1.53 mg/dL
